# Source: patent US9873709B2 (priority 2013, dated 2018)
# Like-named read-outs stand apart in the source and are kept apart here.
# Columns and labels:
# [1] = target: isolated recombinant JAK2 kinase domain (Homo sapiens (Human), UniProt O60674); conditions: read-out: JAK2 Ki
# [2] = test system: JAK1-dependent STAT6 phosphorylation downstream of IL-13 stimulation in TF-1 human erythroleukemia cells; experiment: cells; conditions: TF-1, read-out: IL-13-pSTAT6 IC50
# [3] = test system: JAK1-dependent STAT6 phosphorylation downstream of IL-13 stimulation in BEAS-2B human bronchial epithelial cells; experiment: cells; conditions: read-out: IL13-pSTAT6 BEASB2B IC50
# [4] = isolated recombinant JAK2 kinase domain, 25 μM ATP
# Sequence of isolated recombinant JAK2 kinase domain (O60674 849-1124): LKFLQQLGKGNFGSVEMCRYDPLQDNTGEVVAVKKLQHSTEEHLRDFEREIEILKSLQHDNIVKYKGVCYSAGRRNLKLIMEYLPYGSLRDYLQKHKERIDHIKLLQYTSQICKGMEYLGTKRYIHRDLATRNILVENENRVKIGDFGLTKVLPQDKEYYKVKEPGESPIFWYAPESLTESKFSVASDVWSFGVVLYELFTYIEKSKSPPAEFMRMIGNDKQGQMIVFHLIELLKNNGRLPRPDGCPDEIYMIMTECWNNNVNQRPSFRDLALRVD
"Ki [1, 4]",IC50 [2],Structure (SMILES),IC50 [3],Ki [1]
0.2 nM,15.9 nM,"CN1CCC(N(C)C(=O)c2ccc(Nc3nc4c(N5CCC(CC#N)(c6ccccc6)CC5)cccn4n3)cc2)CC1 [Example 1-41, 4-[[8-[4-(cyanomethyl)-4-phenyl-1-piperidyl]-[1,2,4]triazolo[1,5-a]pyridin-2-yl]amino]-N-methyl-N-(1-methyl-4-piperidyl)benzamide]",42 nM,
7.84 nM,,"CN1CCC(N(C)C(=O)c2ccc(Nc3nc4c(N5CCC(O)(c6ccccc6)CC5)cccn4n3)cc2)CC1 [Example 1-43, 4-[[8-(4-hydroxy-4-phenyl-1-piperidyl)-[1,2,4]triazolo[1,5-a]pyridin-2-yl]amino]-N-methyl-N-(1-methyl-4-piperidyl)benzamide]",968 nM,
0.63 nM,16.4 nM,"O=C(c1ccc(Nc2nc3c(N4CCC(O)(c5ccc(Cl)cc5)CC4)cccn3n2)cc1)N1CCC(N2CCOCC2)CC1 [Example 1-125, [4-[[8-[4-(4-chlorophenyl)-4-hydroxy-1-piperidyl]-[1,2,4]triazolo[1,5-a]pyridin-2-yl]amino]phenyl]-(4-morpholino-1-piperidyl)methanone]",42.8 nM,
1.29 nM,,CO/N=C/C1(c2ccc(Cl)cc2)CCN(c2cccn3nc(Nc4ccc(C(=O)N(C)C5CCN(C)CC5)cc4)nc23)CC1 [Example 1-250],732 nM,
,,"CSc1ccc(C2(CO)CCN(c3cccn4nc(Nc5ccc(C(=O)N(C)C6CCN(C)CC6)cc5)nc34)CC2)cc1 [Example 1-251, 4-([8-[4-(hydroxymethyl)-4-[4-(methylsulfanyl)phenyl]piperidin-1-yl]-[1,2,4]triazolo[1,5-a]pyridin-2-yl]amino)-N-methyl-N-(1-methylpiperidin-4-yl)benzamide]",56.6 nM,0.41 nM
0.5 nM,,"CC(O)C1(c2ccc(Cl)cc2)CCN(c2cccn3nc(Nc4ccc(C(=O)N(C)C5CCN(C)CC5)cc4)nc23)CC1 (centres unmarked) [Example 1-252, 4-[[8-[4-(4-chlorophenyl)-4-(1-hydroxyethyl)-1-piperidyl]-[1,2,4]triazolo[1,5-a]pyridin-2-yl]amino]-N-methyl-N-(1-methyl-4-piperidyl)benzamide]",90.2 nM,
0.57 nM,,"CN1CCC(N(C)C(=O)c2ccc(Nc3nc4c(N5CCC(CN)(c6ccc(Cl)cc6)CC5)cccn4n3)cc2)CC1 [Example 1-265, 4-([8-[4-(aminomethyl)-4-(4-chlorophenyl)piperidin-1-yl]-[1,2,4]triazolo[1,5-a]-pyridin-2-yl]amino)-N-methyl-N-(1-methylpiperidin-4-yl)benzamide]",94.8 nM,
,,"CN1CCC(N(C)C(=O)c2ccc(Nc3nc4c(N5CCC(CO)(c6ccc(C(F)F)cc6)CC5)cccn4n3)cc2)CC1 [Example 1-267, 4-[(8-[4-[4-(difluoromethyl)phenyl]-4-(hydroxymethyl)piperidin-1-yl]-[1,2,4]triazolo[1,5-a]pyridin-2-yl)amino]-N-methyl-N-(1-methylpiperidin-4-yl)benzamide]",32.4 nM,0.25 nM
0.38 nM,,"CC(=O)NCC1(c2ccc(Cl)cc2)CCN(c2cccn3nc(Nc4ccc(C(=O)N(C)C5CCN(C)CC5)cc4)nc23)CC1 [Example 1-268, 4-([8-[4-(4-chlorophenyl)-4-(acetamidomethyl)piperidin-1-yl]-[1,2,4]triazolo[1,5-a]pyridin-2-yl]amino)-N-methyl-N-(1-methylpiperidin-4-yl)benzamide]",56.2 nM,
0.3 nM,,"COC(=O)CCN1CCN(C(=O)Cn2cc(Nc3nc4c(N5CCC(CO)(c6ccc(Cl)cc6)CC5)cccn4n3)cn2)CC1 [Example 1-290, Methyl 3-(4-[2-[4-([8-[4-(4-chlorophenyl)-4-(hydroxymethyl)piperidin-1-yl]-[1,2,4]triazolo[1,5-a]pyridin-2-yl]amino)-1H-pyrazol-1-yl]acetyl]piperazin-1-yl)propanoate]",5.9 nM,
,6.7 nM,"CCOC(=O)N1CC=C(c2cccn3nc(Nc4ccc(C(=O)NCCCN5CCOCC5)cc4)nc23)CC1 [Example 2-56, ethyl 4-[2-[4-(3-morpholinopropylcarbamoyl)anilino]-[1,2,4]triazolo[1,5-a]pyridin-8-yl]-3,6-dihydro-2H-pyridine-1-carboxylate]",59.4 nM,
,3.5 nM,"CC1CCCN(CCNC(=O)c2ccc(Nc3nc4c(C5=CCN(C(=O)CCC(F)(F)F)CC5)cccn4n3)cc2)C1 (centres unmarked) [Example 2-101, N-[2-(3-methyl-1-piperidyl)ethyl]-4-[[8-[1-(4,4,4-trifluorobutanoyl)-3,6-dihydro-2H-pyridin-4-yl]-[1,2,4]triazolo[1,5-a]pyridin-2-yl]amino]benzamide]",31.8 nM,
,3.2 nM,"Cc1ccc(CNC(=O)c2ccc(Nc3nc4c(C5=CCN(C(=O)CCC(F)(F)F)CC5)cccn4n3)cc2)cn1 [Example 2-148, N-[(6-methyl-3-pyridyl)methyl]-4-[[8-[1-(4,4,4-trifluorobutanoyl)-3,6-dihydro-2H-pyridin-4-yl]-[1,2,4]triazolo[1,5-a]pyridin-2-yl]amino]benzamide]",15 nM,
,4.5 nM,"O=C(CCC(F)(F)F)N1CC=C(c2cccn3nc(Nc4ccc(C(=O)N5CCOC(c6ccccn6)C5)cc4)nc23)CC1 (centres unmarked) [Example 2-154, 4,4,4-trifluoro-1-[4-[2-[4-[2-(2-pyridyl)morpholine-4-carbonyl]anilino]-[1,2,4]triazolo[1,5-a]pyridin-8-yl]-3,6-dihydro-2H-pyridin-1-yl]butan-1-one]",80.6 nM,
,6.9 nM,"O=C(CCC(F)(F)F)N1CC=C(c2cccn3nc(Nc4ccc(C(=O)N5CCC(N6CCOCC6)CC5)cc4)nc23)CC1 [Example 2-210, 4,4,4-trifluoro-1-[4-[2-[4-(4-morpholinopiperidine-1-carbonyl)anilino]-[1,2,4]triazolo[1,5-a]pyridin-8-yl]-3,6-dihydro-2H-pyridin-1-yl]butan-1-one]",45.6 nM,
,5.6 nM,"CC(C)(CNC(=O)c1ccc(Nc2nc3c(C4=CCN(C(=O)CCC(F)(F)F)CC4)cccn3n2)cc1)N1CCOCC1 [Example 2-213, N-(2-methyl-2-morpholino-propyl)-4-[[8-[1-(4,4,4-trifluorobutanoyl)-3,6-dihydro-2H-pyridin-4-yl]-[1,2,4]triazolo[1,5-a]pyridin-2-yl]amino]benzamide]",20.6 nM,
,3.3 nM,"CCN(Cc1ccncc1)C(=O)c1ccc(Nc2nc3c(C4=CCN(C(=O)CCC(F)(F)F)CC4)cccn3n2)cc1 [Example 2-219, N-ethyl-N-(4-pyridylmethyl)-4-[[8-[1-(4,4,4-trifluorobutanoyl)-3,6-dihydro-2H-pyridin-4-yl]-[1,2,4]triazolo[1,5-a]pyridin-2-yl]amino]benzamide]",37.2 nM,
,3 nM,"CC1CN(CCNC(=O)c2ccc(Nc3nc4c(C5=CCN(C(=O)CCC(F)(F)F)CC5)cccn4n3)cc2)CC(C)O1 (centres unmarked) [Example 2-268, N-[2-(2,6-dimethylmorpholin-4-yl)ethyl]-4-[[8-[1-(4,4,4-trifluorobutanoyl)-3,6-dihydro-2H-pyridin-4-yl]-[1,2,4]triazolo[1,5-a]pyridin-2-yl]amino]benzamide]",26.6 nM,
,5.3 nM,"O=C(NCCCN1CCOCC1)c1ccc(Nc2nc3c(C4=CCN(C(=O)CCC(F)(F)F)CC4)cccn3n2)cc1 [Example 2-271, N-(3-morpholinopropyl)-4-[[8-[1-(4,4,4-trifluorobutanoyl)-3,6-dihydro-2H-pyridin-4-yl]-[1,2,4]triazolo[1,5-a]pyridin-2-yl]amino]benzamide]",15.9 nM,
,3.9 nM,"O=C(CCC(F)(F)F)N1CC=C(c2cccn3nc(Nc4ccc(C(=O)N(Cc5ccccn5)C5CC5)cc4)nc23)CC1 [Example 2-272, N-cyclopropyl-N-(2-pyridylmethyl)-4-[[8-[1-(4,4,4-trifluorobutanoyl)-3,6-dihydro-2H-pyridin-4-yl]-[1,2,4]triazolo[1,5-a]pyridin-2-yl]amino]benzamide]",106 nM,
,12.7 nM,"CN1CCC(N(C)C(=O)c2ccc(Nc3nc4c(C5=CCN(C(=O)CCC(F)(F)F)CC5)cccn4n3)cc2)CC1 [Example 2-288, N-methyl-N-(1-methyl-4-piperidyl)-4-[[8-[1-(4,4,4-trifluorobutanoyl)-3,6-dihydro-2H-pyridin-4-yl]-[1,2,4]triazolo[1,5-a]pyridin-2-yl]amino]benzamide]",77.7 nM,
,4.3 nM,"CC(CN1CCCCC1)NC(=O)c1ccc(Nc2nc3c(C4=CCN(C(=O)CCC(F)(F)F)CC4)cccn3n2)cc1 (centres unmarked) [Example 2-334, N-[1-methyl-2-(1-piperidyl)ethyl]-4-[[8-[1-(4,4,4-trifluorobutanoyl)-3,6-dihydro-2H-pyridin-4-yl]-[1,2,4]triazolo[1,5-a]pyridin-2-yl]amino]benzamide]",30.7 nM,
,3.3 nM,"O=C(CCC(F)(F)F)N1CC=C(c2cccn3nc(Nc4ccc(C(=O)N5CCC(c6ccncc6)C5)cc4)nc23)CC1 (centres unmarked) [Example 2-338, 4,4,4-trifluoro-1-[4-[2-[4-[3-(4-pyridyl)pyrrolidine-1-carbonyl]anilino]-[1,2,4]triazolo[1,5-a]pyridin-8-yl]-3,6-dihydro-2H-pyridin-1-yl]butan-1-one]",23.4 nM,
,4.6 nM,"O=C(NCCc1ccncc1)c1ccc(Nc2nc3c(C4=CCN(C(=O)CCC(F)(F)F)CC4)cccn3n2)cc1 [Example 2-343, N-[2-(4-pyridyl)ethyl]-4-[[8-[1-(4,4,4-trifluorobutanoyl)-3,6-dihydro-2H-pyridin-4-yl]-[1,2,4]triazolo[1,5-a]pyridin-2-yl]amino]benzamide]",38.3 nM,

Structure (SMILES),"Ki [1, 4]",IC50 [2],IC50 [3],Ki [1]
"CN1CCC(N(C)C(=O)c2ccc(Nc3nc4c(N5CCC(CCC#N)(c6ccc(Cl)cc6)CC5)cccn4n3)cc2)CC1 [Example 1-247, 4-{8-[4-(4-Chloro-phenyl)-4-(2-cyano-ethyl)-piperidin-1-yl]-1,8a-dihydro[1,2,4]triazolo[1,5-a]pyridine-2-ylamino}-N-methyl-N-(1-methyl-piperidin-4-yl)-benzamide]",0.33 nM,18.4 nM,115 nM,
